This note sets out measurements from ChEMBL document CHEMBL5715260, “Selectivity Literature for EUbOPEN Chemogenomic Library” (2024).

What all share (parameters): recommended concentration 1 uM
For assay [1], the target named is T1, Hepatocyte nuclear factor 4-alpha (Homo sapiens) (UniProt P41235).
T1 sequence (whole entry): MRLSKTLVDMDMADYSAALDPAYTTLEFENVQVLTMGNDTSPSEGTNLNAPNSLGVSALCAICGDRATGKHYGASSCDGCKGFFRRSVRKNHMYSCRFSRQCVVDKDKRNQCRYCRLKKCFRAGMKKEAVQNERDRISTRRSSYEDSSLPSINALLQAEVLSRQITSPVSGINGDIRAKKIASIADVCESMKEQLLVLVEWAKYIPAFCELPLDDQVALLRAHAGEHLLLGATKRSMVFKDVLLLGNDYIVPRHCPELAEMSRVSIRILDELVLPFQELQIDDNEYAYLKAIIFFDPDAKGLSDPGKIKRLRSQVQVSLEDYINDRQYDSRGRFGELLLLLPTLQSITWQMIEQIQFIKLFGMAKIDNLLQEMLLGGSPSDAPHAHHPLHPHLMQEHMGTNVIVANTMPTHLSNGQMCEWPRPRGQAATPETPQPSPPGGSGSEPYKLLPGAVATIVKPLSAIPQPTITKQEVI
Description: Selectivity interaction (Reporter gene assay) EUB0001145aNa HNF4A. On the technique in general: A reporter such as luciferase makes a cellular process visible.

For assay [2], the target named is T2, Nuclear receptor subfamily 2 group C member 1 (Homo sapiens) (UniProt P13056).
T2 sequence (whole entry): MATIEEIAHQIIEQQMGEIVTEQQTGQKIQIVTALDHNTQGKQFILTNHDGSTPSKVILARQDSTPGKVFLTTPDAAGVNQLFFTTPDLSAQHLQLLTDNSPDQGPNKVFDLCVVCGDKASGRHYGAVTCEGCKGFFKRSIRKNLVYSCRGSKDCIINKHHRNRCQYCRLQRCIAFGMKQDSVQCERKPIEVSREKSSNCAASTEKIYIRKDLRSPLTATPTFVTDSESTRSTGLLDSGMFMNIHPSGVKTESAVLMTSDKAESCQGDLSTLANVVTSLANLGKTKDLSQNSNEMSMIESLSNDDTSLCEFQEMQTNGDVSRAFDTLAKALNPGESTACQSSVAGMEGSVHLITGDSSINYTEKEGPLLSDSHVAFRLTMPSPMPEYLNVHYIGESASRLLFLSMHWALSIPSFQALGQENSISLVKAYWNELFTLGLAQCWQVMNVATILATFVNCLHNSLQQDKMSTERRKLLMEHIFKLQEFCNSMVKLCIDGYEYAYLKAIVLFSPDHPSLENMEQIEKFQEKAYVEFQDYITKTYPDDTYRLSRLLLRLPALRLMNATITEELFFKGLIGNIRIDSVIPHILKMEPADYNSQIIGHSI
Nature of the assay: Selectivity interaction (Reporter gene assay) EUB0001145aNa NR2C1.

Assay [3] addresses Nuclear receptor subfamily 2 group E member 1 (Homo sapiens) (UniProt Q9Y466). Nature of the assay: Selectivity interaction (Reporter gene assay) EUB0001145aNa NR2E1.
Assay [4] has as its target Nuclear receptor subfamily 4immunitygroup A member 1 (Homo sapiens) (UniProt P22736). Description: Selectivity interaction (Reporter gene assay) EUB0001145aNa NR4A1.
Assay [5] has as its target Steroidogenic factor 1 (Homo sapiens) (UniProt Q13285). Description: Selectivity interaction (Reporter gene assay) EUB0001145aNa NR5A1.
The target of assay [6] is T3, Alpha trans-inducing protein (Human alphaherpesvirus 1) (UniProt A0A5J6DW59). Description: Selectivity interaction (Reporter gene assay) EUB0001145aNa UL48.
T3 sequence (A0A5J6DW59 as listed by the source): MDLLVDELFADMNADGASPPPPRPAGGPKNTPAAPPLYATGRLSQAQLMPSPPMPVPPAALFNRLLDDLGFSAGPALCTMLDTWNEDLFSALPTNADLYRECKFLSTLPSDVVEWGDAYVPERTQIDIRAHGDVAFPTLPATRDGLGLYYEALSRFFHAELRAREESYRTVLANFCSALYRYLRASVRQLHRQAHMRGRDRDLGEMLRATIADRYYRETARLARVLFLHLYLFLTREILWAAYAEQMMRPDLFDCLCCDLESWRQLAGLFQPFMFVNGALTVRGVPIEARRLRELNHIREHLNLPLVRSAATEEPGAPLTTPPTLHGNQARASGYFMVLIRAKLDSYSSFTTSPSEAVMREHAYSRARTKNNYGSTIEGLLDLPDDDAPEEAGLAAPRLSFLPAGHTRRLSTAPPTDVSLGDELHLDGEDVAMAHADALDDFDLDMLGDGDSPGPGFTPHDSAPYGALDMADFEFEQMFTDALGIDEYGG
The target of assay [7] is T4, Retinoic acid receptor RXR-alpha (Homo sapiens) (UniProt P19793).
T4 sequence (whole entry): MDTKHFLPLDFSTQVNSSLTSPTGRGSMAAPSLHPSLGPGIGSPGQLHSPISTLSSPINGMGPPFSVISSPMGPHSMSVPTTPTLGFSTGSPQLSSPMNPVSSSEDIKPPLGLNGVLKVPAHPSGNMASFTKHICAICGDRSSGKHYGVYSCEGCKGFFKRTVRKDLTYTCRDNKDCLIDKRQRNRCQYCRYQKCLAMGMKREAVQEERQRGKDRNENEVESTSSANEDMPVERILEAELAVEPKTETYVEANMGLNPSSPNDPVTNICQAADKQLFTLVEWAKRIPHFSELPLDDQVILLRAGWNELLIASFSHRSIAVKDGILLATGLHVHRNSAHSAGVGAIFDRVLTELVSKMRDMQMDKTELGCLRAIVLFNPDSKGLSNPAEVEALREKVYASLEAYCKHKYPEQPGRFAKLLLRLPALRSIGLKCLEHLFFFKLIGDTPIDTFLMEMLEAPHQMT
Description: Selectivity interaction (Reporter gene assay) EUB0001145aNa RXRA. The following applies: reference bexarotene 1 uM, Selectivity number of off-targets 0.0, Selectivity number of targets 1.0, Source Knowledge inhouse.

The target in assay [8] is Peroxisome proliferator-activated receptor alpha (Homo sapiens) (UniProt Q07869). Description: Selectivity interaction (Reporter gene assay) EUB0001149a PPARA. Particulars: screened at recom. conc., Selectivity number of off-targets 1.0, Selectivity number of targets 19.0, Source Knowledge inhouse.
Peroxisome proliferator-activated receptor alpha (Homo sapiens), sequence (Q07869 whole entry): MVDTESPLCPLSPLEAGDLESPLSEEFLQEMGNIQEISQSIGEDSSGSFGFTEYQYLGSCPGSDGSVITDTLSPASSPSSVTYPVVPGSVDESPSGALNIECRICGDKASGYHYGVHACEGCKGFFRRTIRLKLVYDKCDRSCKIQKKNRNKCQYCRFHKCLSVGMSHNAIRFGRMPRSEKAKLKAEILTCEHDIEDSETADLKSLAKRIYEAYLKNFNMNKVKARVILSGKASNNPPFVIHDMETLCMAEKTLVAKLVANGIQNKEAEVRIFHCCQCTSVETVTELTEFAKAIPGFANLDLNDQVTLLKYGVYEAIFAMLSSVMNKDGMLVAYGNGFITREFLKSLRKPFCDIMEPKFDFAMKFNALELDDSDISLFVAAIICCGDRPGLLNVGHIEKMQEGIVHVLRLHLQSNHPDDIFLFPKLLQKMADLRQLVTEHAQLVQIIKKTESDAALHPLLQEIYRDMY
In assay [9] the target is T1, Hepatocyte nuclear factor 4-alpha (Homo sapiens). Nature of the assay: Selectivity interaction (Reporter gene assay) EUB0001149a HNF4A.
Assay [10] deals with T2, Nuclear receptor subfamily 2 group C member 1 (Homo sapiens). Description: Selectivity interaction (Reporter gene assay) EUB0001149a NR2C1.
The target in assay [11] is Nuclear receptor subfamily 2 group E member 1 (Homo sapiens) (UniProt Q9Y466). Description: Selectivity interaction (Reporter gene assay) EUB0001149a NR2E1.
Nuclear receptor subfamily 2 group E member 1 (Homo sapiens), sequence (Q9Y466 whole entry): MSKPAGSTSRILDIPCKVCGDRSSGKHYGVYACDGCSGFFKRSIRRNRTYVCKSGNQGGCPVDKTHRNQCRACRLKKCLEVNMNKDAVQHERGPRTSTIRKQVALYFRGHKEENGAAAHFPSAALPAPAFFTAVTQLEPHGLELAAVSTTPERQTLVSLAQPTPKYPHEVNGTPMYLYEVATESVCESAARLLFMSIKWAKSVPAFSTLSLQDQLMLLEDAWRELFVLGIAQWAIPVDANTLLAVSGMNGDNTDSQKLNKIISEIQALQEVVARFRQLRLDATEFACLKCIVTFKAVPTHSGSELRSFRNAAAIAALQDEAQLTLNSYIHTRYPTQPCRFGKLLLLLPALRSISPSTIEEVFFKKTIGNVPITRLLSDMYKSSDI
For assay [12], the target named is Nuclear receptor subfamily 4immunitygroup A member 1 (Homo sapiens) (UniProt P22736). Nature of the assay: Selectivity interaction (Reporter gene assay) EUB0001149a NR4A1.
Nuclear receptor subfamily 4immunitygroup A member 1 (Homo sapiens), sequence (P22736 whole entry): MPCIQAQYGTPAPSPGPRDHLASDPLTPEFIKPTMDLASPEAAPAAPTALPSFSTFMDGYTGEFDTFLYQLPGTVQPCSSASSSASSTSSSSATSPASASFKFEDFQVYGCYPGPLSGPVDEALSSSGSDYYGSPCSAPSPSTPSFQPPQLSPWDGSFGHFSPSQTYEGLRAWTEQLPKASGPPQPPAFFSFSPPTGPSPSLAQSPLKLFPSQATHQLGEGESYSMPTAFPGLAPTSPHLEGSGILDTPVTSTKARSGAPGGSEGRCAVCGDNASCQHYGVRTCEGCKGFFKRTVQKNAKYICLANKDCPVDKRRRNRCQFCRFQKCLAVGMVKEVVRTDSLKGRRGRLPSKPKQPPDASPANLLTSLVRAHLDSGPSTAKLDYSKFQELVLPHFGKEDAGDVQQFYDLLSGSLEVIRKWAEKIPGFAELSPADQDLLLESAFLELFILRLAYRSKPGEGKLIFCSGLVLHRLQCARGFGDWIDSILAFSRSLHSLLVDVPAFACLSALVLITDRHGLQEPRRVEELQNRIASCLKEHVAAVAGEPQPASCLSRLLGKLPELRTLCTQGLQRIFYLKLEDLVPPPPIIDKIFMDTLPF
The target of assay [13] is Steroidogenic factor 1 (Homo sapiens) (UniProt Q13285). Description: Selectivity interaction (Reporter gene assay) EUB0001149a NR5A1.
Steroidogenic factor 1 (Homo sapiens), sequence (Q13285 whole entry): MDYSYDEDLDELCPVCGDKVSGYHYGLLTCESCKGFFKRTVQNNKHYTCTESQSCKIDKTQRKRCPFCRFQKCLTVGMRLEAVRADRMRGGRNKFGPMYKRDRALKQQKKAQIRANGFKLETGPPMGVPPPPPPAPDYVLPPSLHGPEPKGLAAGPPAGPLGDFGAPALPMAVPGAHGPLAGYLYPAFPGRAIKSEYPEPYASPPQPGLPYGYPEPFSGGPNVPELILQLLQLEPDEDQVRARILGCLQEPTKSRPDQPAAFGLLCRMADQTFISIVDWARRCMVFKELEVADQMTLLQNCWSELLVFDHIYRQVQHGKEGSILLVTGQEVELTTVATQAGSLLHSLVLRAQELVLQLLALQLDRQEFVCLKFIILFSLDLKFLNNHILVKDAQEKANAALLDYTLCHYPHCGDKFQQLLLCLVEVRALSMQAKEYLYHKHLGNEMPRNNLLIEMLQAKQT
Assay [14] concerns the target T3, Alpha trans-inducing protein (Human alphaherpesvirus 1). Nature of the assay: Selectivity interaction (Reporter gene assay) EUB0001149a UL48.
Assay [15] deals with T4, Retinoic acid receptor RXR-alpha (Homo sapiens). Description: Selectivity interaction (Reporter gene assay) EUB0001149a RXRA. Particulars: reference bexarotene 1 uM, Selectivity number of off-targets 0.0, Selectivity number of targets 1.0, Source Knowledge inhouse.
Assay [16] concerns the target T1, Hepatocyte nuclear factor 4-alpha (Homo sapiens). Nature of the assay: Selectivity interaction (Reporter gene assay) EUB0001144a HNF4A.
In assay [17] the target is T2, Nuclear receptor subfamily 2 group C member 1 (Homo sapiens). Description: Selectivity interaction (Reporter gene assay) EUB0001144a NR2C1.
Assay [18] concerns the target Nuclear receptor subfamily 2 group E member 1 (Homo sapiens) (UniProt Q9Y466). Nature of the assay: Selectivity interaction (Reporter gene assay) EUB0001144a NR2E1.
The target of assay [19] is Nuclear receptor subfamily 4immunitygroup A member 1 (Homo sapiens) (UniProt P22736). Nature of the assay: Selectivity interaction (Reporter gene assay) EUB0001144a NR4A1.
The target in assay [20] is Steroidogenic factor 1 (Homo sapiens) (UniProt Q13285). Description: Selectivity interaction (Reporter gene assay) EUB0001144a NR5A1.
For assay [21], the target named is T3, Alpha trans-inducing protein (Human alphaherpesvirus 1). Description: Selectivity interaction (Reporter gene assay) EUB0001144a UL48.
The target of assay [22] is T4, Retinoic acid receptor RXR-alpha (Homo sapiens). Nature of the assay: Selectivity interaction (Reporter gene assay) EUB0001144a RXRA. Particulars: reference bexarotene 1 uM, Selectivity number of off-targets 0.0, Selectivity number of targets 1.0, Source Knowledge inhouse.
Assay [23] has as its target T5, Peroxisome proliferator-activated receptor gamma (Homo sapiens) (UniProt P37231).
T5 sequence (whole entry): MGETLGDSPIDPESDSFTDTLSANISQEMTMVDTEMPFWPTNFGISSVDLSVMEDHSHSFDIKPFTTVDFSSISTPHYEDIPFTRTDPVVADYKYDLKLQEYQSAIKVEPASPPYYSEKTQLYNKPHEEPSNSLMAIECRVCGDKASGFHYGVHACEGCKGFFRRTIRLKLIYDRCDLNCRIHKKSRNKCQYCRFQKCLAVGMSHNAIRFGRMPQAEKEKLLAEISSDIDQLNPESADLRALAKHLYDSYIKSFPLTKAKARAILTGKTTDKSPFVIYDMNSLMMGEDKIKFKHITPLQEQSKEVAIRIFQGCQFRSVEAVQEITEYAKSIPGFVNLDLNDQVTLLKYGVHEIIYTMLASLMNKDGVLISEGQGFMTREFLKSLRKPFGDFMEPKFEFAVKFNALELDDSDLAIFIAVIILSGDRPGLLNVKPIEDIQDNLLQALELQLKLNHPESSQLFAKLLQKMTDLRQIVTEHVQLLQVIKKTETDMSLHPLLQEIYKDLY
Description: Selectivity interaction (Reporter gene assay) EUB0001141a PPARG. The following applies: screened at recom. conc., Selectivity number of off-targets 1.0, Selectivity number of targets 19.0, Source Knowledge inhouse.

For assay [24], the target named is T1, Hepatocyte nuclear factor 4-alpha (Homo sapiens). Description: Selectivity interaction (Reporter gene assay) EUB0001141a HNF4A.
Assay [25] has as its target T2, Nuclear receptor subfamily 2 group C member 1 (Homo sapiens). Description: Selectivity interaction (Reporter gene assay) EUB0001141a NR2C1.
For assay [26], the target named is Nuclear receptor subfamily 2 group E member 1 (Homo sapiens) (UniProt Q9Y466). Description: Selectivity interaction (Reporter gene assay) EUB0001141a NR2E1.
Assay [27] has as its target Nuclear receptor subfamily 4immunitygroup A member 1 (Homo sapiens) (UniProt P22736). Nature of the assay: Selectivity interaction (Reporter gene assay) EUB0001141a NR4A1.
Assay [28] concerns the target Steroidogenic factor 1 (Homo sapiens) (UniProt Q13285). Nature of the assay: Selectivity interaction (Reporter gene assay) EUB0001141a NR5A1.
The target in assay [29] is T3, Alpha trans-inducing protein (Human alphaherpesvirus 1). Nature of the assay: Selectivity interaction (Reporter gene assay) EUB0001141a UL48.
Assay [30] addresses T4, Retinoic acid receptor RXR-alpha (Homo sapiens). Nature of the assay: Selectivity interaction (Reporter gene assay) EUB0001141a RXRA. The following applies: reference bexarotene 1 uM, Selectivity number of off-targets 0.0, Selectivity number of targets 1.0, Source Knowledge inhouse.
Assay [31] concerns the target T1, Hepatocyte nuclear factor 4-alpha (Homo sapiens). Nature of the assay: Selectivity interaction (Reporter gene assay) EUB0001147a HNF4A.
In assay [32] the target is T2, Nuclear receptor subfamily 2 group C member 1 (Homo sapiens). Nature of the assay: Selectivity interaction (Reporter gene assay) EUB0001147a NR2C1.
In assay [33] the target is Nuclear receptor subfamily 2 group E member 1 (Homo sapiens) (UniProt Q9Y466). Nature of the assay: Selectivity interaction (Reporter gene assay) EUB0001147a NR2E1.
In assay [34] the target is Nuclear receptor subfamily 4immunitygroup A member 1 (Homo sapiens) (UniProt P22736). Nature of the assay: Selectivity interaction (Reporter gene assay) EUB0001147a NR4A1.
The target in assay [35] is Steroidogenic factor 1 (Homo sapiens) (UniProt Q13285). Description: Selectivity interaction (Reporter gene assay) EUB0001147a NR5A1.
Assay [36] deals with T3, Alpha trans-inducing protein (Human alphaherpesvirus 1). Description: Selectivity interaction (Reporter gene assay) EUB0001147a UL48.
In assay [37] the target is T4, Retinoic acid receptor RXR-alpha (Homo sapiens). Nature of the assay: Selectivity interaction (Reporter gene assay) EUB0001147a RXRA. The following applies: reference bexarotene 1 uM, Selectivity number of off-targets 0.0, Selectivity number of targets 1.0, Source Knowledge inhouse.

On to `CCO[C@H](COc1ccc(C(F)(F)F)cc1)CSc1ccc(OCC(=O)O)c(C)c1`, for which the Fold activation in assay [1] was found to be 1.17; in assay [2] it was 1.29; in assay [3], 1.14; in assay [4], 1.09; in assay [5], 1.13. Further, in [6], the P-value amounted to 0.0052. This molecule also displayed a Relative activation in assay [7] of 0.702%.
`O=C(O)CCCc1cc2cc(Cl)ccc2n1S(=O)(=O)c1ccc2ncsc2c1`: the Fold activation in [8] worked out at 5.01; in [9], 1.19; in [12], 1.09; in [13] it was 1.16. Moreover, the Remaining activity in assay [10] turned out to be 0.743; in [11], 0.755. The molecule also showed a P-value in assay [14] of 0.0075. The Relative activation in assay [15] is 1.07%.
As to `CCO[C@@H](Cc1ccc(OCCc2ccc(OS(C)(=O)=O)cc2)cc1)C(=O)O`, the Fold activation in assay [16] worked out at 1.01; in assay [17], 1.11; in [18], 1.07; in assay [20], 1.01. For the same molecule, the Remaining activity in assay [19] came to 0.821. In assay [21], this molecule yielded a P-value of 0.0008. The Relative activation in assay [22] is 0.813%.
In the case of `Cc1nc(-c2ccc(C(F)(F)F)cc2)sc1C(=O)NCc1ccc(OC(C)(C)C(=O)O)cc1`, the results for the Fold activation in assay [23], in assay [26] and in [28] were 2.82, 0.997 and 1.12, respectively. Further, the Remaining activity in assay [24] amounted to 0.924; in assay [25], 0.982; in assay [27], 0.875. In assay [29], this molecule yielded a P-value of 7.52e-07. Besides, the Relative activation in assay [30] stood at 0.895%.
As to `CSc1ccc(C(=O)/C=C/c2cc(C)c(OC(C)(C)C(=O)O)c(C)c2)cc1`, the results for the Remaining activity in assay [31] and in [35] were 0.852 and 0.871, respectively. The Fold activation in assay [32] was 1.41; in [33], 1.11; in assay [34], 1.25. Also, the P-value in assay [36] was found to be 6.06e-07. In assay [37], this molecule registered a Relative activation of 0.86%.
